{"source": "patent US12440471B2", "about": "“Compositions and methods for the treatment of bronchopulmonary dysplasia (BPD) and BPD-associated pulmonary hypertension” (AyuVis Research, Inc., priority 2021, dated 2025)", "key": {"[1]": {"tested_on": "hyperoxia-exposed BPD mouse model", "assay": "Hyperoxia-exposed BPD mouse model: dose response and lung morphometry", "format": "in vivo", "details": "mouse, in vivo", "procedure": "Simultaneously, the AVR-48 nanosuspension formulation IN (0.11 mg/kg) was tested as well as in solution form, IP and IV (10 mg/kg) (through the facial vein), and confirmed that all routes of administration gave similar outcomes. […] From the PK study, as described above, the bioavailability of the drug in the plasma and lungs were similar when delivered as solution formulation via either IN or IP routes. As the goal of this study is to develop AVR-48 as a commercially viable and applicable therapeutic candidate for BPD, the IP route was selected as the preferred mode of drug delivery in neonatal murine pups, with the rationale that it would be easier to deliver the drug systemically to preterm babies IV, rather than the IN route. The results and outcome of all the routes of administration have been presented in a cumulative manner, as the endpoint was similar for all routes of administration. […] FIG. 1 is a dose response study of AVR-48 at different doses of […], given IP. ****p<0.0001. N=5-7 mice per group. 10 mg/kg (IP) was selected as the most efficacious dose. IP: intraperitoneal; Hyp: hyperoxia; BPD: Bronchopulmonary dysplasia.\nFormulation of AVR-48 for efficacy and toxicokinetic studies. For the mouse dose response efficacy studies, AVR-48 was reconstituted in 0.9% sterile normal saline to give a final dose concentration of […] as a colorless solution, and injected IP (30 μl) on P2 and P4. The PLGA encapsulated AVR-48 or the GFP-tagged analog was resuspended in deionized sterile water to make a nanosuspension with final dose concentration of 0.025, 0.05 and 0.11 mg/kg/drop. The surfactant Curosurf® (Cheisi Parma, Italy), available commercially, was delivered IN at a volume of 3 μl per nostril, on P2 and P4. For the toxicokinetic study of AVR-48 in rat pups, a formulation of 10% DMSO, 20% tetraglycol, 20% PEG 400, and 50% sterile water was made fresh before administration (Shah, Das et al. 2021).\n(§1) For the hyperoxia experiment, newborn pups were exposed to 100% hyperoxia (P0), along with their mothers, in cages in an airtight Plexiglas chamber (OxyCycler; Biospherix, Redfield, NY, USA) as described previously by the present inventors (Syed, Das et al., 2017, Leary, Das et al. 2019, Das, Acharya et al. 2020, relevant portions incorporated herein) for 4 consecutive days (till P4) and removed to RA on P5 to be recovered till P14, so as to emulate the human BPD condition. All pups were sacrificed on P14 for further experimental analyses. The pups without any hyperoxia exposure served as the corresponding RA (normoxia) controls.\nHistology, immunohistochemistry and immunofluorescence. Both the RA control and BPD mice were anesthetized (using an overdose of a cocktail of xylazine-ketamine) and lung and heart tissues were harvested after perfusion and fixed overnight in 4% paraformaldehyde. Fixed tissues were then washed in fresh PBS, dehydrated using 70% ethanol, cleared, and embedded in paraffin to be sectioned and stained with hematoxylin and eosin (H&E) for lung morphometry or immunohistochemistry/immunofluorescence as previously described (Leary, Das et al. 2019, Das, Achaiya et al. 2020, Das, Curstedt et al. 2020). Immunofluorescence staining was done for Ki67 (Abcam, 1:10) and Von Wilebrand Factor (vWF-DAKO, 1:100) on lung paraffin sections following the protocol as described earlier (Leary, Das et al. 2019) while TUNEL staining was done following the manufacturer's instructions (Roche).\nMorphometry and quantification. To study chord length, septal thickness and radial alveolar count in the lungs, RV, LV and IVS thickness, 5 μm-thick left-lobe lung and heart paraffin-embedded sections were stained with H&E. Multiple randomly chosen areas (at least 10 areas) from each section were photographed using 100× total magnification. […]"}, "TLR4": {"target": "T1, TLR4 (Homo sapiens, UniProt O00206)", "T1 construct": "Cell lysates were prepared, total protein was quantified and treated with different concentrations; host or cells: THP-1 cells stimulated with PMA for 48 h, then lysed", "T1 sequence (O00206 24-839)": "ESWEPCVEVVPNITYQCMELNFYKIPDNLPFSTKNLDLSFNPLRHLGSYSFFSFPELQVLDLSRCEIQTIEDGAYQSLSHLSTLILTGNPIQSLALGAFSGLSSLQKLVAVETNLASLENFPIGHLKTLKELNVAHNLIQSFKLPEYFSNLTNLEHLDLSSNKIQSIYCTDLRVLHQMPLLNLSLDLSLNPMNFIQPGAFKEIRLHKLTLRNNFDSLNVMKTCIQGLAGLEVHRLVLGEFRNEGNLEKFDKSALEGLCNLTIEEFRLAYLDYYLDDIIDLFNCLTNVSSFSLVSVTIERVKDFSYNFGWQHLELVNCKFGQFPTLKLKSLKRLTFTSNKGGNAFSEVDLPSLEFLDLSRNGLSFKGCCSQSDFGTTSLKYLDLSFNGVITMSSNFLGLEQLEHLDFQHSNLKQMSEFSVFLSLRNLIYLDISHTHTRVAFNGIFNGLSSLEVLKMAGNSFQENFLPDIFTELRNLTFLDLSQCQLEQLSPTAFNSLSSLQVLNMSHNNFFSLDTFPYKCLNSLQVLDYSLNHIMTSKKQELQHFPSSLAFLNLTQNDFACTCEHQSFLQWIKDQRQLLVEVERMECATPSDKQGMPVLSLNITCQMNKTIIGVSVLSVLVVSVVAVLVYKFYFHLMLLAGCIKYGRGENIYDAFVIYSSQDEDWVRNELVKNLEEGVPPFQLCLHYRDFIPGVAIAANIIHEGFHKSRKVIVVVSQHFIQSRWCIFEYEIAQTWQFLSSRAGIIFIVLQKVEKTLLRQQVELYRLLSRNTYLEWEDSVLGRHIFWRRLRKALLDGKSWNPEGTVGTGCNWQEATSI", "assay": "TLR4 assay: unbound TLR4 ELISA in PMA-stimulated THP-1 cell lysates", "format": "binding", "details": "THP-1 human monocyte cells", "procedure": "FIG. 26A, TLR4 assay: 1×10^5 THP cells (ATCC) were seeded in 24 well plates and stimulated with phorbol myristyl actetate (PMA, 200 ng/mL) for 48 h. Cell lysates were prepared, total protein was quantified and treated with different concentrations (4, 16, 62.5 and 250 μM) of the AVR-48 for 2 h. ELISA was performed after to assess unbound TLR4 following manufacturer's instruction (Raybiotech). TLR4 IC50 of the AVR-48 was calculated using GraphPad Prism7.04."}, "[2]": {"tested_on": "human cord blood monocytes (CBMC)", "assay": "Cytokines in human cord blood monocytes (CBMC)", "format": "cell-based", "details": "compound alone (10 μM) or with LPS, compared with only LPS", "source_text": "IL-12p40, is a marker for the innate immune response to infection and is down regulated in CBMC."}, "[3]": {"tested_on": "hyperoxia-exposed BPD mouse model", "assay": "BPD mouse model: bronchoalveolar lavage fluid (BALF) analysis", "format": "in vivo", "details": "10 mg/kg; vs BPD group", "source_text": "as §1\nBronchoalveolar lavage fluid (BALF) Analysis. Pups were sacrificed on PN14, and the trachea was cannulated with a small-caliber needle by instilling PBS endotracheally at […] pressure for 15 minutes. Two volumes of 300 μL of cold 1×PBS were instilled, gently aspirated, and pooled. Samples were centrifuged at 1000×g for 10 minutes at 4° C. The supernatant was collected, and total protein was quantified using the Pierce™ BCA Protein Assay Kit (Fisher Scientific Co, Houston, TX). The total cell count was done using the TC20 cell counter (BioRad, Hercules, CA). Similar method was followed for analyzing the protein concentration in BAL fluid collected from preterm lambs."}, "[4]": {"assay": "Oral PK of nanomilled formulations in adult SD rats", "format": "in vivo, rat", "details": "rat, in vivo, po, 100 mg/kg", "procedure": "The test item, the stabilizer (HPC-SSL) and the surfactant (SDS) were accurately weighed and transferred in a 15-mL amber glass jar charged with 6 mL of yttrium-stabilized zirconia beads (0.8 mm). The suspension was brought to final weight with water in order to achieve the desired final concentration. The formulation was mixed using a vortex for at least 1 minute and then homogenized using a roller mill (Unitized Jar Mill, Model 755 RMV from U.S. Stoneware (purchased from Fisher Scientific Canada cat #08-381-1) at 50 rpm for 48 hours.\nFor the animal study, the suspensions prepared at 50 mg/mL were diluted to 10 mg/mL using a blank vehicle prepared using the same proportions of excipients as those indicated in Table I. By diluting the concentrated suspension of AVR-84 a clear solution was obtained whereas for AVR-48 the solution was a homogeneous cloudy solution.\nAnimals and dosing: The male SD rats (N=3) were obtained from Charles River. Each animal was weighed before the administration of the test item. […] At the specified time points, t=15′, 30′, 1 h, 2 h, 3 h, 4 h, 6 h, 8 h and 24 h (N=3), blood (100 μL) was collected via the saphenous vein using MINIVETTE® POCT K3-EDTA. The blood samples were centrifuged for 10 min at 965 g and 4° C. within 30 min of collection, to obtain plasma. Plasma samples were kept frozen at −80° C. The plasma samples were thawed on ice and kept on ice during the sample preparation. Thirty μL of plasma samples were mixed with 75 μL of precipitation solution (80% acetonitrile and 20% methanol containing IS) was added. Samples were mixed and centrifuged at 3500 rpm for 10 min at 4° C. Forty μL of the supernatant was transferred to a 96 well plate, and 80 μL of water+0.1% formic acid was added and analyzed using the in house developed HPLC method."}}}
{"smiles": "CC(=O)N[C@@H]1C(Oc2ccc(B3OC(C)(C)C(C)(C)O3)cc2)OC(CO)C(O)C1O", "note": "(stereo partly shown) [Compound 32]", "values": [{"measurement": "inflammatory cytokines in neonatal mouse pups with BPD", "setting": "[1]", "result": "decrease inflammatory cytokines"}, {"measurement": "binding to TLR4", "setting": "TLR4", "result": "bind TLR4"}]}
{"smiles": "CCOC(=O)C1=CCCC[C@H]1S(=O)(=O)Nc1ccc(F)cc1Cl", "note": "[TAK 242, reference compound]", "values": [{"measurement": "IL-12p40 response", "setting": "[2]", "result": "decrease the LPS induced increase in IL-12p40 level"}, {"measurement": "total inflammatory cells in BALF", "setting": "[3]", "result": "did not affect"}]}
{"smiles": "CC(=O)N[C@@H]1C(Oc2ccc3nonc3c2)OC(CO)C(O)C1O", "note": "(stereo partly shown) [AVR-84]", "values": [{"measurement": "Cmax", "setting": "[4]", "result": 4.56, "unit": "µM"}, {"measurement": "Tmax", "setting": "[4]", "result": "0.5 ± 0.0", "unit": "h"}, {"measurement": "half-life (T v2)", "setting": "[4]", "result": "1.66 ± 1.0", "unit": "h"}, {"measurement": "plasma concentration profile", "setting": "[4]", "result": "linear decline in drug concentration"}]}
{"smiles": "CC(=O)NC1[C@H](Oc2ccc(C(=O)N[C@@H]3OC(CO)[C@@H](O)[C@H](O)C3NC(C)=O)cc2)OC(CO)[C@@H](O)[C@@H]1O", "note": "(stereo partly shown) [Compound 3]", "values": [{"measurement": "inflammatory cytokines in neonatal mouse pups with BPD", "setting": "[1]", "result": "decrease inflammatory cytokines"}, {"measurement": "binding to TLR4", "setting": "TLR4", "result": "bind TLR4"}]}
